We go through one molecule from patent EP0845210A1, “New herbicidal compositions” (RHONE-POULENC AGRICULTURE LTD., priority 1994, dated 1996).

The test system of the test is Amaranthus retroflexus. Nature of the test: Procedure A: pre-emergence glasshouse pot test, growth reduction assessed two weeks after treatment. The conditions noted are these: Table A2. Type of test: in vivo. An excerpt:
Seed of the various species of broad-leaf or grass weeds were sown in unsterilised clay loam soil in 7 centimetre by 7 centimetre plastic plant pots. The pots were watered and allowed to drain. The soil surface was then sprayed with ranges of concentrations of either the individual herbicide or mixtures of two herbicides in various proportions, dissolved in a 50:50 by volume solution of acetone and water, using a track sprayer set to deliver the equivalent of 290 l/ha. All herbicides were used as unformulated technical materials except dimethenamid, which was used as the commercial formulation "Frontiere" (trade mark), a flowable containing 900g/l active ingredient; and alachlor, which was used as "Lasso" (trade mark), an emulsifiable concentrate formulation containing 480g/l active ingredient.
Treated pots were placed at random in four replicate blocks per treatment for each plant species. The pots were held, in a glasshouse, standing on moist capillary matting, under lights and with overhead watering twice daily.
Two weeks after treatment the percent reduction in plant growth, compared to an untreated control, was assessed.
Mean percent reduction in plant growth was calculated for each treatment. Dose/mean response was plotted on Log concentration/Probability graph paper, and lines fitted by eye. For herbicide mixtures a dose/response line for the first herbicide was drawn for each dose rate of the second herbicide and a dose/response line for the second herbicide was drawn for each dose rate of the first herbicide. The doses representing a 90% reduction in plant growth (LD90's) were read from these lines and plotted on graphs whose axes were dose rates of the two herbicides. The line joining these points is an Isobole i.e. a line joining points (mixtures) of equal activity, as described by P.M.L. Tammes, Neth. J. Plant Path. 70 (1964) : 73-80. A line was also drawn joining the LD90's of the individual components of the mixture. This line represents the theoretical isobole if the effect of the two components is additive i.e. there is no interaction between them. Isoboles falling below this line indicate synergy between the components while lines lying above it indicate antagonism.
In the tables that follow 'dose' represents the dose rate in grammes per hectare of the active ingredient used; and the figures for the weed control are percentages reduction in growth when compared with the untreated controls.

On to `CS(=O)(=O)c1cc(C(F)(F)F)ccc1C(=O)c1cnoc1C1CC1` [Compound A, 5-cyclopropyl-4-(2-methylsulphonyl-4-trifluoromethyl)benzoylisoxazole], for which the “percent reduction in plant growth” value was 12.5% (A 1 g/ha alone); 51.25% (A 2 g/ha alone); 12.5% (A 4 g/ha alone); 87.5% (A 8 g/ha alone); 92.5% (A 16 g/ha alone); 99.75% (A 32 g/ha alone). Besides, the “percent reduction in plant growth” value (A 64 g/ha alone) turned out to be 99.75%.
